In PubChem BioAssay (NCI):
“And” between values parts separate entries of the source, which are not always exact repeats. Identical values can stand only once.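 Briefly, cells in 96-well plates were exposed to five compound concentrations for 48 h, and endpoints were estimated by linear interpolation. Abbreviation: GI50, concentration required for 50% inhibition of growth. Definition used: TGI = concentration required for complete inhibition of growth.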

Key:
Assay in all cases: inhibition of tumour cell growth, NCI panel, 48 h
OVCAR-4 ovarian = tested on: OVCAR-4 ovarian
HCT-15 colon = tested on: HCT-15 colon
OVCAR-5 ovarian = tested on: OVCAR-5 ovarian
OVCAR-8 ovarian = tested on: OVCAR-8 ovarian
786-0 renal = tested on: 786-0 renal
HCT-116 colon = tested on: HCT-116 colon
SK-MEL-5 melanoma = tested on: SK-MEL-5 melanoma
MCF7 breast = tested on: MCF7 breast
SF-295 CNS = tested on: SF-295 CNS
NCI-H226 lung = tested on: NCI-H226 lung

| SMILES | TGI (OVCAR-4 ovarian) | TGI (HCT-15 colon) | TGI (OVCAR-5 ovarian) | TGI (OVCAR-8 ovarian) | TGI (786-0 renal) | TGI (HCT-116 colon) | TGI (SK-MEL-5 melanoma) | TGI (MCF7 breast) | TGI (SF-295 CNS) | GI50 (OVCAR-4 ovarian) | GI50 (HCT-15 colon) | GI50 (OVCAR-5 ovarian) | GI50 (OVCAR-8 ovarian) | GI50 (786-0 renal) | GI50 (HCT-116 colon) | GI50 (SK-MEL-5 melanoma) | GI50 (NCI-H226 lung) | TGI (NCI-H226 lung) | GI50 (SF-295 CNS) | GI50 (MCF7 breast) |
| --- | --- | --- | --- | --- | --- | --- | --- | --- | --- | --- | --- | --- | --- | --- | --- | --- | --- | --- | --- | --- |
| Cc1ccc(Nc2n[nH]c(=S)s2)cc1C | > 100 µM | > 100 µM | > 100 µM | > 100 µM | > 100 µM | > 100 µM | > 100 µM | > 100 µM | > 100 µM | – | – | – | – | – | – | – | – | – | – | – |
| C=C1C(=O)O[C@H]2[C@H]1CC/C(COC(=O)NCc1cn(C)c3ccccc13)=C\CC[C@@]1(C)O[C@@H]21 | 7.92 µM | 2.17 µM | 3.96 µM | 5.18 µM | 2.04 µM | 1.07 µM | 2.74 µM | – | 13.9 µM | 2.38 µM | 0.611 µM | 1.72 µM | 1.4 µM | 0.685 µM | 0.288 µM | 1.41 µM | 4.38 µM | 20.9 µM | 3.27 µM | – |
| Oc1c(C(Nc2cccc3cccnc23)c2ccccc2)ccc2cccnc12 (configuration not stated) | > 100 µM | – | > 100 µM | 21.3 µM | > 100 µM | > 100 µM | – | – | > 100 µM | – | – | – | – | – | – | – | – | 9.79 µM | – | – |
| CC(=O)CC(=O)OC1CC(C)CCC1C(C)C (configuration not stated) | > 100 µM | > 100 µM | > 100 µM | > 100 µM | > 100 µM | 80.1 µM | > 100 µM | – | > 100 µM | – | – | – | – | – | – | – | – | – | – | – |
| COC(=O)C1(C)CCC(c2ccc(C)cc2)=C(CC(=O)O)C1 (configuration not stated) | > 100 µM | > 100 µM | > 100 µM | > 100 µM | > 100 µM | > 100 µM | > 100 µM | > 100 µM | > 100 µM | – | – | – | – | – | – | – | – | – | – | – |
| C[C@H]1[C@H](C)CC[C@]2(CO)CC[C@]3(C)C(=CC[C@@H]4[C@@]5(C)CCCNC(C)(C)[C@@H]5CC[C@]43C)[C@H]12 | – | 2.75 µM | 3.18 µM | 3.61 µM | 3.06 µM | 2.81 µM | 3.09 µM | 3.39 µM | 3.06 µM | – | 1.37 µM | 1.69 µM | 1.96 µM | 1.6 µM | 1.49 µM | 1.7 µM | – | – | 1.64 µM | 1.58 µM |
| Cc1ccc(S(=O)(=O)N/N=C/c2c(O)ccc3ccccc23)cc1 | 84.3 µM | > 100 µM | 88.2 µM | > 100 µM | > 100 µM | 45.6 µM | > 100 µM | > 100 µM | 57.5 µM | – | – | – | – | – | – | – | – | – | – | – |
| CCc1cc(C(=O)OC)cn1C(=N)c1ccc(Cl)cc1 | > 100 µM | > 100 µM | > 100 µM | > 100 µM | > 100 µM | > 100 µM | > 100 µM | – | > 100 µM | – | – | – | – | – | – | – | – | > 100 µM | – | – |
| OC(c1ccccc1)(c1ccccc1)c1ccncc1 | > 100 µM | > 100 µM | > 100 µM | > 100 µM | > 100 µM | > 100 µM | > 100 µM | – | > 100 µM | – | – | – | – | – | – | – | – | > 100 µM | – | – |
| Cc1cc2c(cc1C)N(C(=O)CCl)CC(=O)N2 | 3.05 µM | 3.42 µM | 5.33 µM | 10.8 µM | 15.5 µM | 9.77 µM | 13.6 µM | 10.9 µM | 29.6 µM | 1.59 µM | 1.74 µM | 2.53 µM | 3.01 µM | 3.9 µM | 2.53 µM | 3.48 µM | – | – | 13.6 µM | 2.45 µM |
| COc1ccc2cc(C(=O)/C=C/c3ccc(Cl)cc3Cl)ccc2c1 | – | 29.7 µM | > 100 µM | 30.4 µM | 24.3 µM | 10.3 µM | 29.9 µM | > 100 µM | > 100 µM | – | 9.17 µM | 48.4 µM | 14.8 µM | 8.13 µM | 3.04 µM | 12.1 µM | – | – | 35.9 µM | 18.1 µM |
| CCS(CC)(CC)CC1CCCC2=CCC(P(=O)(c3ccccc3)c3ccccc3)CC21 (configuration not stated) | 26 µM | 21.8 µM | 30.4 µM | 31.4 µM | 26.1 µM | 20.7 µM | 29.8 µM | – | 16.3 µM | – | – | – | – | – | – | – | – | 39.6 µM | – | – |
| COC1CC(OS(=O)(=O)c2ccc([N+](=O)[O-])cc2)C(OC(=O)c2ccccc2)C(C)O1 (configuration not stated) | > 100 µM | > 100 µM | > 100 µM | > 100 µM | > 100 µM | > 100 µM | > 100 µM | – | > 100 µM | – | – | – | – | – | – | – | – | – | – | – |
| COc1cnc2c(c1)C(=O)c1c-2n(CCCn2ccnc2)c(=O)c2cc(F)ccc12 | 1.63 µM | 1.56 µM | 0.789 µM | 13.9 µM | 0.0563 µM | 0.141 µM | 0.0717 µM | – | 0.352 µM | 0.118 µM | 0.155 µM | 0.119 µM | 0.0151 µM | 0.0131 µM | < 0.01 µM | 0.0169 µM | 0.0251 µM | 0.213 µM | < 0.01 µM | – |
| Cc1ccc(S(=O)(=O)OC2CSS(=O)CC2OS(=O)(=O)c2ccc(C)cc2)cc1 (configuration not stated) | 32.6 µM | 33.6 µM | 32.1 µM | 22.5 µM | 30.5 µM | 27.1 µM | 30.1 µM | – | 29.2 µM | – | – | – | – | – | – | – | – | 34.4 µM | – | – |
| O=[N+]([O-])c1cc(C(F)(F)F)cc([N+](=O)[O-])c1CCl | 3.69 µM | – | 10.1 µM | 4.91 µM | 8.21 µM | 2.46 µM | 1.75 µM | – | 10.8 µM | – | – | – | – | – | – | – | – | 3.11 µM | – | – |
| CC(C)C1CC[C@@H](C)C[C@@]1(O)CC(N)=O (some centres not stated) | > 100 µM | > 100 µM | > 100 µM | > 100 µM | > 100 µM | > 100 µM | > 100 µM | – | > 100 µM | – | – | – | – | – | – | – | – | > 100 µM | – | – |
| O=C(O)C(SC(=S)c1ccc(C(=S)SC(C(=O)O)c2ccccc2)cc1)c1ccccc1 (configuration not stated) | – | > 100 µM | > 100 µM | > 100 µM | > 100 µM | > 100 µM | > 100 µM | – | > 100 µM | – | – | – | – | – | – | – | – | > 100 µM | – | – |
| COc1cc2c(c(OC)c1OC)-c1ccc(SC)c(=O)cc1C(CO)C2 (configuration not stated) | > 100 µM | 0.723 µM and 1.3 µM | > 100 µM | – | > 100 µM | – | – | – | > 100 µM | < 0.01 µM | < 0.01 µM | > 100 µM | < 0.01 µM | < 0.01 µM | < 0.01 µM | < 0.01 µM | < 0.01 µM | 0.59 µM and 0.138 µM | < 0.01 µM | – |
